Reference: US20220062240A1, “METHODS OF TREATING CANCER USING A CLK INHIBITOR” (BioSplice Therapeutics, Inc., priority 2018, published 2022)
Read-outs that look alike come from different tables or passages of the source.

How the values were obtained:
[1] = test system: lung cancer (4 cell lines); assay: CellTiter-Glo Viability Assay, lung cancer; type: cell-based; conditions: Homo sapiens, inhibition of cancer cell proliferation
CLK3 = CLK3 (Homo sapiens, UniProt P49761); assay: CLK3 kinase activity assay (Z-lyte, Ser/Thr 18 peptide)
[2] = test system: haematopoietic & lymphoid tumors (13 cell lines); assay: CellTiter-Glo Viability Assay, haematopoietic & lymphoid tumors; type: cell-based; conditions: Homo sapiens, inhibition of cancer cell proliferation
all 50 cell lines = assay: CellTiter-Glo Viability Assay, average across all cell lines; type: cell-based; conditions: Homo sapiens; across all 50 cell lines; read-out: average EC50 for inhibition of cancer cell proliferation
How it was run: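 Cells were plated at 300-3,000 per well in their own media, then treated with compound in duplicate, with DMSO wells as controls. After four days at 37° C and 5% CO2, CellTiter-Glo was added, and luminescence was read. EC50s were fitted.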

MDA-MB-231-Luc = assay: CellTiter-Glo Viability Assay, breast cancer; type: cell-based; conditions: Homo sapiens, 96 h; MDA-MB-231-Luc, breast cancer, four days; read-out: EC50
MCF7 = assay: CellTiter-Glo Viability Assay, breast cancer; type: cell-based; conditions: Homo sapiens, 96 h; MCF7, breast cancer, four days; read-out: EC50
ZR-75-1 = assay: CellTiter-Glo Viability Assay, breast cancer; type: cell-based; conditions: Homo sapiens, 96 h; ZR-75-1, breast cancer, four days; read-out: EC50
T47D = assay: CellTiter-Glo Viability Assay, breast cancer; type: cell-based; conditions: Homo sapiens, 96 h, breast cancer, four days, read-out: EC50
BT-549 = assay: CellTiter-Glo Viability Assay, breast cancer; type: cell-based; conditions: Homo sapiens, 96 h; BT-549, breast cancer, four days; read-out: EC50
CAMA1 = assay: CellTiter-Glo Viability Assay, breast cancer; type: cell-based; conditions: Homo sapiens, CAMA-1, 96 h; CAMA1, breast cancer, four days; read-out: EC50
DU4475 = assay: CellTiter-Glo Viability Assay, breast cancer; type: cell-based; conditions: Homo sapiens, DU-4475, 96 h; DU4475, breast cancer, four days; read-out: EC50
HCC1599 = assay: CellTiter-Glo Viability Assay, breast cancer; type: cell-based; conditions: Homo sapiens, 96 h; HCC1599, breast cancer, four days; read-out: EC50
[3] = test system: prostate cancer (5 cell lines); assay: CellTiter-Glo Viability Assay, prostate cancer; type: cell-based; conditions: Homo sapiens
[4] = test system: pancreatic cancer (8 cell lines); assay: CellTiter-Glo Viability Assay, pancreatic cancer; type: cell-based; conditions: Homo sapiens, inhibition of cancer cell proliferation
[5] = test system: ovarian cancer (4 cell lines); assay: CellTiter-Glo Viability Assay, ovarian cancer; type: cell-based; conditions: Homo sapiens, inhibition of cancer cell proliferation
CLK2 = target: T1, CLK2 (Homo sapiens, UniProt P49760); assay: CLK2 kinase activity assay (Z-lyte, Ser/Thr 6 peptide); type: biochemical; conditions: recombinant CLK2 kinase, ATP 60 μM; read-out: EC50
T1 construct: purchased Thermo Fisher (Life Technologies), Z'-LYTE Kinase Assay Kits
Method: All reactions were performed in duplicate.

[6] = test system: colorectal cancer (6 cell lines); assay: CellTiter-Glo Viability Assay, colorectal cancer; type: cell-based; conditions: Homo sapiens, inhibition of cancer cell proliferation
[7] = test system: liver cancer (3 cell lines); assay: CellTiter-Glo Viability Assay, liver cancer; type: cell-based; conditions: Homo sapiens, inhibition of cancer cell proliferation

T1 sequence (P49760 whole entry): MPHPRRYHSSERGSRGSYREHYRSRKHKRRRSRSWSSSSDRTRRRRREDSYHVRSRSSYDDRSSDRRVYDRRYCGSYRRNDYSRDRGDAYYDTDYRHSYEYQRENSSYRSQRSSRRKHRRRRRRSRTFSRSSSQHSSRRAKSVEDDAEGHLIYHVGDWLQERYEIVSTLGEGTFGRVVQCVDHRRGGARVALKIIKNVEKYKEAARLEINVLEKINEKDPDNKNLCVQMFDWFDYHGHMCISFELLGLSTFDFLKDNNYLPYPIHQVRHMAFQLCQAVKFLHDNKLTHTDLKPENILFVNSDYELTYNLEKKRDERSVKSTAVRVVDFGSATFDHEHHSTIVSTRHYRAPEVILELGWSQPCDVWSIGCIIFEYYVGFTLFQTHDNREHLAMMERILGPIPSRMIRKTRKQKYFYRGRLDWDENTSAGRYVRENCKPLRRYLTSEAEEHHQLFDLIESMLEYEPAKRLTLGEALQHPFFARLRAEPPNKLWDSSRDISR
Sequence of CLK3 (P49761 whole entry): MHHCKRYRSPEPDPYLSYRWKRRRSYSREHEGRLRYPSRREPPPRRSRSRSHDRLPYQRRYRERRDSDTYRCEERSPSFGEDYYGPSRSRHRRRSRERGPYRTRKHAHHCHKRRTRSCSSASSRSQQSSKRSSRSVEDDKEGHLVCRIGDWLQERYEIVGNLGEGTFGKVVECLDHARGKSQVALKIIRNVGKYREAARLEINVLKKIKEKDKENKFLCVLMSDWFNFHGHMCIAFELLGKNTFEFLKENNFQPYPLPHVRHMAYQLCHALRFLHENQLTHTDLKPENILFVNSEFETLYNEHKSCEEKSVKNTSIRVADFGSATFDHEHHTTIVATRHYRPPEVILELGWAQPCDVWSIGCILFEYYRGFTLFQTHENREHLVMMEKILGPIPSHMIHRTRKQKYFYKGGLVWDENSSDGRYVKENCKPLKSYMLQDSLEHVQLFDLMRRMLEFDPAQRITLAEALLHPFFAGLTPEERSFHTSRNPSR

CN1CCC(C(=O)Nc2c[nH]nc2-c2nc3c(-c4ccc(F)s4)cccc3[nH]2)CC1 [Compound 90]
EC50 ([1]; A-427, A427 cell line, read-out: Lung cancer, EC50 (μM) A427): 0.13 µM
EC50 ([1]; HCC78, HCC-78 cell line, read-out: Lung cancer, EC50 (μM) HCC-78): 0.136 µM
EC50 ([1]; NCI-H460 cell line, read-out: Lung cancer, EC50 (μM) NCI-H460): 0.243 µM
EC50 ([1]; NCI-H522 cell line, read-out: Lung cancer, EC50 (μM) NCI-H522): 0.091 µM
EC50 (CLK3): 21.7 nM
EC50 ([2]; DND41, DND-41 cell line, read-out: Haematopoietic & Lymphoid tumors, EC50 (μM) DND-41): 0.106 µM
EC50 ([2]; MV4-11, MV-4-11 cell line, read-out: Haematopoietic & Lymphoid tumors, EC50 (μM) MV-4-11): 0.008 µM
EC50 ([2]; Rec1, REC-1 cell line, read-out: Haematopoietic & Lymphoid tumors, EC50 (μM) REC-1): 0.022 µM
EC50 ([2]; SU-DHL-4, SUDHL4 cell line, read-out: Haematopoietic & Lymphoid tumors, EC50 (μM) SUDHL4): 0.079 µM
EC50 ([2]; HL-60 cell line, read-out: Haematopoietic & Lymphoid tumors, EC50 (μM) HL-60): 0.246 µM
EC50 ([2]; JM1 cell line, read-out: Haematopoietic & Lymphoid tumors, EC50 (μM) JM1): 0.06 µM
EC50 ([2]; JURKAT, Clone E6-1 cell line, read-out: Haematopoietic & Lymphoid tumors, EC50 (μM) JURKAT, Clone E6-1): 0.226 µM
EC50 ([2]; JeKo-1 cell line, read-out: Haematopoietic & Lymphoid tumors, EC50 (μM) JeKo-1): 0.04 µM
EC50 ([2]; KASUMI-1 cell line, read-out: Haematopoietic & Lymphoid tumors, EC50 (μM) KASUMI-1): 0.053 µM
EC50 ([2]; Loucy cell line, read-out: Haematopoietic & Lymphoid tumors, EC50 (μM) Loucy): 0.105 µM
EC50 ([2]; MOLT-4 cell line, read-out: Haematopoietic & Lymphoid tumors, EC50 (μM) MOLT-4): 0.125 µM
EC50 ([2]; TF-1 cell line, read-out: Haematopoietic & Lymphoid tumors, EC50 (μM) TF-1): 0.08 µM
EC50 ([2]; TOLEDO cell line, read-out: Haematopoietic & Lymphoid tumors, EC50 (μM) TOLEDO): 0.066 µM
EC50 (all 50 cell lines): 142 nM
EC50 (MDA-MB-231-Luc): 202 nM
EC50 (MCF7): 360 nM
EC50 (ZR-75-1): 216 nM
EC50 (T47D): 281 nM
EC50 (BT-549): 116 nM
EC50 (CAMA1): 433 nM
EC50 (DU4475): 95 nM
EC50 (HCC1599): 125 nM
EC50 ([3]; DU-145, read-out: Prostate cancer EC50 Du-145): 123 nM
EC50 ([3]; PC-3, PC3 cell line, inhibition of cancer cell proliferation, read-out: Prostate cancer EC50 PC3): 93 nM
EC50 ([3]; 22Rv1 cell line, inhibition of cancer cell proliferation, read-out: Prostate cancer EC50 22Rv1): 102 nM
EC50 ([3]; LNCap clone FGC cell line, inhibition of cancer cell proliferation, read-out: Prostate cancer EC50 LNCap clone FGC): 332 nM
EC50 ([3]; VCaP (Sigma) cell line, inhibition of cancer cell proliferation, read-out: Prostate cancer EC50 VCaP (Sigma)): 98 nM
EC50 ([4]; BXPC-3, BxPC3 cell line, read-out: Pancreatic cancer, EC50 BxPC3): 46 nM
EC50 ([4]; CAPAN-1, Capan1 cell line, read-out: Pancreatic cancer, EC50 Capan1): 114 nM
EC50 ([4]; Capan-2, Capan2 cell line, read-out: Pancreatic cancer, EC50 Capan2): 151 nM
EC50 ([4]; MIA PaCa-2 cell line, read-out: Pancreatic cancer, EC50 MIA PaCa-2): 60 nM
EC50 ([4]; PANC 05.04 cell line, read-out: Pancreatic cancer, EC50 PANC 05.04): 140 nM
EC50 ([4]; PANC-1 cell line, read-out: Pancreatic cancer, EC50 PANC-1): 217 nM
EC50 ([4]; UPAFII cell line, read-out: Pancreatic cancer, EC50 UPAFII): 106 nM
EC50 ([5]; PA-1, PA1 cell line, read-out: Ovarian cancer, EC50 (μM) PA1): 0.23 µM
EC50 ([5]; TOV112D, TOV-112D cell line, read-out: Ovarian cancer, EC50 (μM) TOV-112D): 0.101 µM
EC50 ([5]; OV-90 cell line, read-out: Ovarian cancer, EC50 (μM) OV-90): 0.361 µM
EC50 ([5]; OVCAR-3 cell line, read-out: Ovarian cancer, EC50 (μM) OVCAR-3): 0.111 µM
EC50 (CLK2): 11.2 nM
EC50 ([6]; HCT-116, HCT116 cell line, read-out: Colorectal cancer, EC50 (μM) HCT116): 0.06 µM
EC50 ([6]; HT-29, HT29 cell line, read-out: Colorectal cancer, EC50 (μM) HT29): 0.171 µM
EC50 ([6]; SW-620, SW620 cell line, read-out: Colorectal cancer, EC50 (μM) SW620): 0.047 µM
EC50 ([6]; DLD-1 cell line, read-out: Colorectal cancer, EC50 (μM) DLD-1): 0.131 µM
EC50 ([6]; SW48 cell line, read-out: Colorectal cancer, EC50 (μM) SW48): 0.023 µM
EC50 ([6]; SW480 cell line, read-out: Colorectal cancer, EC50 (μM) SW480): 0.061 µM
EC50 ([7]; SNU-398, SNU398 cell line, read-out: Liver cancer, EC50 SNU398): 55 nM
EC50 ([7]; HEPG2 cell line, read-out: Liver cancer, EC50 HEPG2): 164 nM
EC50 ([7]; PLC/PRF/5 cell line, read-out: Liver cancer, EC50 PLC/PRF/5): 371 nM
